Measurements: PMC9127186, “Molecular Basis Underlying Hepatobiliary and Renal Excretion of Phenolic Acids of Salvia miltiorrhiza Roots (Danshen)” (Frontiers in Pharmacology, 2022)

Tests used:
human BCRP = molecular target: T1, human BCRP (Homo sapiens, UniProt Q9UNQ0); test: Vesicular transport assay, inside-out membrane vesicles expressing human BCRP; details: 10 min
T1 sequence (Q9UNQ0 1-655): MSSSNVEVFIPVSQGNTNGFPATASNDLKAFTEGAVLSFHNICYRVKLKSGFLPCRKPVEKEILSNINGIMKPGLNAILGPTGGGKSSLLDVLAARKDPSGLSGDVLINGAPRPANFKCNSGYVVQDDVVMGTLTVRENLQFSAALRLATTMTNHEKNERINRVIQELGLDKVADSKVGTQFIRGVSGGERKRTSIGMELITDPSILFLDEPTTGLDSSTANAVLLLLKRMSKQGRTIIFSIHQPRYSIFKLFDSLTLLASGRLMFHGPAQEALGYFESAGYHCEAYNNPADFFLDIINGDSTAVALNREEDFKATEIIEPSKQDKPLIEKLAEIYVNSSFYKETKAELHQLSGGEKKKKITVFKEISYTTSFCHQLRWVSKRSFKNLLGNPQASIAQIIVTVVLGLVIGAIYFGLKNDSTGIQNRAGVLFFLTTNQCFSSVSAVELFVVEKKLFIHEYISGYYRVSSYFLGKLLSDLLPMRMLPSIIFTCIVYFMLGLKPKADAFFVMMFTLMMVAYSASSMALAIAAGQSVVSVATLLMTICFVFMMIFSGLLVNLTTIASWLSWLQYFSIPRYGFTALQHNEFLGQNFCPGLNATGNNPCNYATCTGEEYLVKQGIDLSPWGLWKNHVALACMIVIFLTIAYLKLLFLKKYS
Experimental: Inside-out membrane vesicles (5 mg protein/mL), prepared from insect cells expressing human multidrug resistance-associated protein (MRP) 2, MRP3, MRP4, breast cancer resistance protein (BCRP), bile salt export pump (BSEP), and multidrug resistance protein (MDR) one and rat Mrp2, Mrp4, Bcrp, and Bsep, and vesicles (5 mg protein/mL; prepared from the insect cells expressing no ABC transporter; serving as negative control) were obtained from Genomembrane (Kanazawa, Japan).
The test Danshen compounds at 100 µM final concentration were separately incubated with the membrane vesicles for 10 min. Buffer C (50 mM MOPS-tris, 70 mM KCl, 7.5 mM MgCl2, pH 7.0) was used for preincubation and incubation, while buffer D (40 mM MOPS-tris, 70 mM KCl, pH 7.0) was used for vesicle washing. The transport rate (pmol/mg protein/min) of the test Danshen compound was calculated using Equation (2): Transport=(CV×VV)/T/WV (2) where C V, V V, T, and W V represent concentration of the compound in vesicular lysates supernatant (μM), volume of the lysates (μL), incubation time (10 min), and amount of vesicle protein amount per well (0.05 mg), respectively. Differential transport of the test Danshen compound between ATP-containing vesicles and AMP-containing vesicles was defined as net transport ratio (TransportATP/TransportAMP ratio). […] All the incubation samples were analyzed by liquid chromatography/mass spectrometry.

rat Ntcp = molecular target: T2, rat Ntcp (Rattus norvegicus, UniProt P26435); test: Cellular transport assay, HEK-293 cells expressing rat Ntcp; details: Danshen phenolic acid at 100 μM final concentration, 10 min; rat Ntcp-transfected vs mock cells
T2 sequence (P26435 1-362): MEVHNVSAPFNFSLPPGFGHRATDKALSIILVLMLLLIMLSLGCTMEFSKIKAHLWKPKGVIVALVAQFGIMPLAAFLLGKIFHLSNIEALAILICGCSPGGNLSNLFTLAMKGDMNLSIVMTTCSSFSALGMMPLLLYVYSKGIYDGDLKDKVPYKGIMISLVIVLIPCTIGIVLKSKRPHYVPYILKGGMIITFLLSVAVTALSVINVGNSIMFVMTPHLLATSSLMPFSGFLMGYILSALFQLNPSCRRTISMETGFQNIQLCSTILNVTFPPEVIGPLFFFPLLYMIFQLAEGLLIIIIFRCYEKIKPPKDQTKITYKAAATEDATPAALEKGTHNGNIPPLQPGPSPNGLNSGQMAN

human NTCP = molecular target: T3, human NTCP (Homo sapiens, UniProt Q14973); test: Cellular transport assay, HEK-293 cells expressing human NTCP; details: Danshen phenolic acid at 100 μM final concentration, 10 min; human NTCP-transfected vs mock cells
T3 sequence (Q14973 1-349): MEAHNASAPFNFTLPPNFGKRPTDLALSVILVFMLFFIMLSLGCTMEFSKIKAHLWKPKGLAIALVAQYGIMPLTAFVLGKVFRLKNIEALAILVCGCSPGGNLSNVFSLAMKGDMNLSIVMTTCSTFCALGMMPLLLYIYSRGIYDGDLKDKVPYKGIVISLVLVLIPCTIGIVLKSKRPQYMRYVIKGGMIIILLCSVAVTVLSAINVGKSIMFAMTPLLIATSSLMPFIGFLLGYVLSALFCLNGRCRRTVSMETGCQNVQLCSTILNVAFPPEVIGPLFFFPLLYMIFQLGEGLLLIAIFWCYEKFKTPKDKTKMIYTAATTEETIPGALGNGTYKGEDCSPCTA

rat Oatp1a1 = molecular target: T4, rat Oatp1a1 (Rattus norvegicus, UniProt P46720); test: Cellular transport assay, HEK-293 cells expressing rat Oatp1a1; details: Danshen phenolic acid at 100 μM final concentration, 10 min; rat Oatp1a1-transfected vs mock cells
T4 sequence (P46720 1-670): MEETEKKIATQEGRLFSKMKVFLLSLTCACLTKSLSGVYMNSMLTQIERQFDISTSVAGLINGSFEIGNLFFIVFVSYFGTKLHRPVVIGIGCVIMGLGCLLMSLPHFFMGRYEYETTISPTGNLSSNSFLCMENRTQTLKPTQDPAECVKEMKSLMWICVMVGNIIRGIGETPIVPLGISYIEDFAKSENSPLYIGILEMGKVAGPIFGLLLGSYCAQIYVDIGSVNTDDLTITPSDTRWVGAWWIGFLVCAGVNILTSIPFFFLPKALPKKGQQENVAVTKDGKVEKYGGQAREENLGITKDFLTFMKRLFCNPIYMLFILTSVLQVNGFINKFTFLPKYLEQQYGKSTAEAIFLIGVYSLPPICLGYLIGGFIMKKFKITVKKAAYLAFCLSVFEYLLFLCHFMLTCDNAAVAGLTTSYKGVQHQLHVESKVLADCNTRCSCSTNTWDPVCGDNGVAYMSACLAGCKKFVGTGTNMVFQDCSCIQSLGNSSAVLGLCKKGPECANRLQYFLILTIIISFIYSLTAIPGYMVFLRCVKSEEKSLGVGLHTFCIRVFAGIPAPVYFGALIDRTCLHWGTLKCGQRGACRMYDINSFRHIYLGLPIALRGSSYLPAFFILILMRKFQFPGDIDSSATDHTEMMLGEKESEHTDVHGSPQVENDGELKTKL

[1] = Danshen phenolic acid at 100 μM final concentration, human BCRP vesicles

| Compound | TransportATP/TransportAMP ratio (net transport ratio) (human BCRP; human, not told, 100 μM, pH 7) | TransportATP/TransportAMP ratio (net transport ratio) (human BCRP; [1]) | TransportTC/TransportMC ratio (net transport ratio) (rat Ntcp) | TransportTC/TransportMC ratio (net transport ratio) (human NTCP) | TransportTC/TransportMC ratio (net transport ratio) (rat Oatp1a1) |
| --- | --- | --- | --- | --- | --- |
| O=C(/C=C/c1ccc(O)c(O)c1)O[C@H](Cc1ccc(O)c(O)c1)C(=O)O [Rosmarinic acid, rosmarinic acid] | 1.12 ± 0.55 | – | – | – | – |
| O=C(O)c1ccc(O)c(O)c1 [Protocatechuic acid, protocatechuic acid] | – | 1.04 ± 0.19 | 1.04 ± 0.27 | 1.26 ± 0.15 | 1.66 ± 0.77 |
| O=C(/C=C/c1ccc(O)c(O)c1/C=C/c1ccc(O)c(O)c1)O[C@H](Cc1ccc(O)c(O)c1)C(=O)O [Salvianolic acid A, salvianolic acid A] | 1.12 ± 0.35 | – | – | – | – |
| O=C(O)Cc1c(/C=C/C(=O)O[C@H](Cc2ccc(O)c(O)c2)C(=O)O)ccc(O)c1O [Salvianolic acid D, salvianolic acid D] | – | 2.22 ± 0.61 | 1.49 ± 0.23 | 2.09 ± 0.36 | 2.45 ± 1.88 |
| salvianolic acid B | – | 1.54 ± 0.78 | 1.90 ± 0.02 | 2.88 ± 0.21 | 1.91 ± 0.42 |
| O=C(/C=C/c1ccc(O)c2c1[C@H](C(=O)O)[C@@H](c1ccc(O)c(O)c1)O2)O[C@H](Cc1ccc(O)c(O)c1)C(=O)O [Lithospermic acid, lithospermic acid] | – | 1.12 ± 0.31 | 1.71 ± 0.15 | 2.44 ± 0.13 | 1.41 ± 0.67 |
